What was measured:
[1] = Inhibition of TGEV 3CL protease using Dabcyl-KTSAVLQ/SGFRKME-Edans as substrate incubated for 30 mins followed by substrate addition measured after 30 mins by FRET assay; set-up: species or system Transmissible gastroenteritis virus
[2] = Cytotoxicity against African green monkey Vero E6 cells by CCK-8 assay; assay type: toxicity, cell-based, Vero C1008; conditions: chlorocebus sabaeus
[3] = Inhibition of MERS 3CL protease using Dabcyl-KTSAVLQ/SGFRKME-Edans as substrate incubated for 30 mins followed by substrate addition measured after 30 mins by FRET assay; set-up: species or system Middle East respiratory syndrome-related coronavirus
[4] = Inhibition of FIPV 3CL protease using dabcyl-KTSAVLQ/SGFRKME-edans as substrate incubated for 30 mins followed by substrate addition measured after 30 mins by FRET assay; set-up: species or system Feline infectious peritonitis virus
[5] = Clearance in CD-1 mouse at 5 to 20 mg/kg, ip measured after up to 24 hrs by LC-MS/MS analysis; assay type: ADME, organism-based; conditions: in vivo, dose 5-20 mg/kg
SARS-CoV-2 [6] = assay: Antiviral activity against SARS CoV-2 infected in African green monkey Vero cells assessed as inhibition of plaque formation by viral plaque assay; assay type: functional, organism-based; conditions: Severe acute respiratory syndrome coronavirus 2, Vero
[7] = Half life in mouse at 2 mg/kg, IM; assay type: ADME, organism-based; conditions: in vivo
SARS-CoV-2 [8] = assay: Antiviral activity against SARS CoV-2 assessed as inhibition of virus-induced cytopathic effect by neutral red uptake assay; assay type: functional, organism-based; conditions: Severe acute respiratory syndrome coronavirus 2
[9] = Half life in Sprague-Dawley […] measured up to 24 hrs; assay type: ADME, organism-based
SARS-CoV-2 [10] = assay: Antiviral activity against SARS CoV-2 infected in human Calu-3 cells measured after 24 hrs by qRT-PCR analysis; assay type: functional, organism-based; conditions: Severe acute respiratory syndrome coronavirus 2, Calu-3, 24 h
[11] = target: T1, Replicase polyprotein 1ab (Severe acute respiratory syndrome coronavirus 2, UniProt P0DTD1); assay: Inhibition of C-terminal 6-His-tagged recombinant SARS CoV-2 3CL protease expressed in Escherichia coli BL21-Gold DE3 cells by FRET assay
[12] = target: T1, Replicase polyprotein 1ab; assay: Inhibition of recombinant SARS CoV-2 PL protease incubated for 60 mins by fluorescence based analysis
[13] = target: T1, Replicase polyprotein 1ab; assay: Inhibition of SARS CoV-2 PL protease
[14] = Inhibition of MERS CoV 3CL protease expressed in Escherichia coli BL21-Gold DE3 cells by FRET assay; set-up: species or system Middle East respiratory syndrome-related coronavirus
[15] = Half life in CD-1 mouse at 3 mg/kg, sc measured after up to 24 hrs by HPLC-MS/MS analysis; assay type: ADME, organism-based; conditions: in vivo
[16] = Cmax in CD-1 mouse at 3 mg/kg, sc measured after up to 24 hrs by HPLC-MS/MS analysis; assay type: ADME, organism-based; set-up: time < 24 hrs, dose 3 mg/kg, route sc; conditions: in vivo

In the case of CC(C)C[C@H](NC(=O)OCc1ccccc1)C(=O)N[C@@H](C[C@@H]1CCNC1=O)C(O)S(=O)(=O)O (some centres not stated), the IC50 [1] is reported as 820 nM, the CC50 [2] is reported as > 100000 nM and the IC50 [3] is reported as 1560 nM. For the same molecule, the IC50 [4] was 720 nM.

For O=C[C@H](C[C@@H]1CCNC1=O)NC(=O)[C@H](Cc1cccc(F)c1)NC(=O)c1cc2ccccc2[nH]1, the CL/F [5] was 21 mL/min/kg, the EC50 (SARS-CoV-2 [6]) was 720 nM and the CC50 [2] was > 100000 nM.

With Nc1ncnc2c([C@@H]3N[C@H](CO)[C@@H](O)[C@H]3O)c[nH]c12 the half-life [7] was < 5 min, the EC50 (SARS-CoV-2 [8]) was 57700 nM and the half-life [9] was 6.2 h.

With Nc1cccn([C@@H](CC2CC2)C(=O)N[C@@H](C[C@@H]2CCNC2=O)C(=O)C(=O)NCc2ccccc2)c1=O the EC50 (SARS-CoV-2 [10]) was > 40000 nM and the IC50 [11] was 1340 nM.

Work on O=C(Nc1ccccc1O)c1ccccc1[Se][Se]c1ccccc1C(=O)Nc1ccccc1O yielded an IC50 [12] of 34000 nM.

Work on CC(=O)N[C@@H](CCc1nc2ccccc2s1)C(=O)N[C@@H](CN)C(=O)NCC(=O)NC/C=C/C(=O)O yielded an IC50 [13] of 10000 nM.

In the case of CC(C)(C)OC(=O)Nc1cccn([C@@H](CC2CC2)C(=O)N[C@@H](C[C@@H]2CCNC2=O)C(=O)C(=O)NCc2ccccc2)c1=O, the IC50 [14] is reported as 580 nM, the half-life [15] is reported as < 2 h and the Cmax [16] is reported as 126 ng/mL.

— ChEMBL document CHEMBL5136972, “Targeting SARS-CoV-2 Proteases and Polymerase for COVID-19 Treatment: State of the Art and Future Opportunities” (J Med Chem, 2022)
